# pIC50: −log10 of the molar value. Where two headings read alike, the source gives them in different places.
# Experiments:
# gastric acid secretion = test: Inhibition of gastric acid secretion in gastric fistula beagle dogs (histamine-stimulated); format: in vivo; details: for inhibition in vivo at 3 mg/kg: Canis lupus familiaris, 4 h, read-out: Gastric-Fistula Beagle % Inhibition (3 mg/kg dose)
# Description: Adult female beagle dogs weighing 6 to 11 kilograms obtained from Laboratory Research Enterprises (Kalamazoo, Mich.) or from Hazelton Research Animals (Cumberland, Va.) were surgically implanted with a simple Thomas-type gastric cannula. After recovery from surgery, the dogs were trained to stand quietly, fully conscious, in Pavlov-type dog restraining slings and were acclimated to intravenous infusion of histamine dihydrochloride. During the course of these studies, no dog was used more than once a week. All dogs were deprived of food, but not water, for 18 hours prior to each assay. Each dog was initially infused with 0.15 M sodium chloride solution at a constant rate of […]. The volume of gastric secretions, collected in plastic bottles affixed to the cannula, were measured to the nearest 0.1 ml at 30 minute intervals. One of the following protocols was followed, depending on the route chosen for administration of test compound.
# Intravenous dosing: Following a 30-minute basal secretion period, test compounds were administered intravenously (i.v.). At the end of an additional 30 minute period, the saline infusion was replaced with histamine dihydrochloride in saline administered at a rate 15 mcg per kilogram of body weight per hour. Histamine stimulation was maintained for a maximum of four hours during which time gastric secretions were collected every 30 minutes. The pH and titratable acidity were determined for samples from each collection period.
# Intragastric dosing: Following a 30-minute basal secretion period, he collection bottles were removed, dosing plugs here inserted, and test compounds were administered intragastrically (i.g.) At the end of a 30-minute drug absorption period, the stomachs were emptied, the collection bottles were reattached, and collections were resumed at 30-minute intervals. Simultaneously, the saline infusion was replaced with a continuous intravenous infusion of histamine dihydrochloride in saline administered for four hours at a rate 15 mcg per kilogram of body weight per hour.
# Intraduodenal dosing: Dogs were also equipped with duodenal cannulas for intraduodenal (i.d.) administration of test compounds. Dosing was otherwise performed as described for intragastric dosing.
# Data from each protocol were analyzed for three gastric sample variables: volume of gastric juice, acid concentration, and total acid output. Percent inhibition for each four-hour experimental period was determined for each parameter by comparison with 3 to 4 controls in which […]. Estimates of ED50's were determined from dose response curves.
# [1] = molecular target: HCMV protease (assemblin) (Human cytomegalovirus, UniProt P16753); test: Enzymatic assay for HCMV protease (assemblin) inhibitors, fluorogenic substrate DE2; format: biochemical; details: for inhibition at 100 µM: read-out: Assemblin Inhibition % Inhibition at 100 μm
# Chain of HCMV protease (assemblin) (P16753 1-256): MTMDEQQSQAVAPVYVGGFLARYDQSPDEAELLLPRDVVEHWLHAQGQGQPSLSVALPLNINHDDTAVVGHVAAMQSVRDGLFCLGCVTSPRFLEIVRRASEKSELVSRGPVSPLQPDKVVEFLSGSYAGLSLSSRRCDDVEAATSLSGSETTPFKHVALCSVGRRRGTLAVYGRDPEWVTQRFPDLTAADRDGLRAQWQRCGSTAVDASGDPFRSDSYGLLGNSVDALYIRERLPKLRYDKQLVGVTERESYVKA
# Method: The enzymatic assay for assemblin inhibitors compared the rate of product appearance between a control reaction containing no inhibitor and one that contained a known concentration of a potential inhibitor. There were two phases to the enzyme reaction. The first was a period of incubation of enzyme in the presence of inhibitor, but in the absence of the substrate. This incubation allowed for the inhibitor to bind and potentially block the enzyme from hydrolyzing the substrate. The second phase was started by adding the substrate and measuring the rate of product production.
# The construction also encoded six additional histidine residues at the amino terminus of the protease. These additional histidine residues provided an affinity ligand by which it was purified using nickel-nitriloacetic acid-agarose (Qiagen).
# The purified protease was stored as a 1-3 mg/ml stock solution in 50 mM sodium phosphate buffer, pH 7.4; 300 mM sodium chloride; 100 mM imidazole; 50% (v/v) glycerol. This stock was diluted with assay buffer to 4.8 μg/ml. A 100 μL aliquot of this solution was used in the enzyme reaction.
# A specific substrate was synthesized based on the cleavage specificity of HCMV protease at the “maturation site” of the assembly protein (F. Liu and B. Roizman, J. Viral. 65, 5149 (1991), and A. R. Welch, et al, J. Viral., 65 4091 (1991)). The assembly protein maturation site has the sequence . . . AGVVNA*SCRLATA . . . (SEQ ID NO. 1); the substrate used was dabcycl-Abu-[…]-edans (SEQ ID NO. 2) (DE2). […] However, when the two chromophores are separated because of hydrolysis of the peptide moiety by HCMV protease the edans fluorescence was no longer quenched and an increase in fluorescence was realized. DE2 was stored as a stock solution at 160 μg/ml in dimethyl sulfoxide. This was diluted 10-fold with assay buffer to give a concentration of 16 μg/ml just before use. An aliquot of 50 μL was used in the reaction.
# An assay Buffer (10 mM sodium phosphate buffer, pH 7.4; 150 mM sodium acetate; 0.1% CHAPS; and 20% (v/v) glycerol) was used to dilute stock solutions of enzyme and substrate.
# Inhibitors were dissolved in dimethyl sulfoxide at 16-times the final assay concentration. A 10 μL aliquot of this inhibitor solution was used in the reaction.
# A 100 μL aliquot of enzyme solution (4.8 μg/ml) was mixed with 10 μL of inhibitor solution in a 96-well plate cell and incubated at 22° C. for 30 minutes. Control reactions contained 10 μL of dimethylsulfoxide instead of inhibitor solution. After the preincubation was completed, 50 μL of substrate solution was added and the fluorescence recorded every 5 minutes for a period of 30 minutes. All reactions were run in triplicate with the exception of the uninhibited control reaction which was replicated 6-fold. The change in fluorescence was recorded over time and an average rate for each set of 3 reactions was calculated. Fluorescence assays were subject to spurious various due to factors such as dust in the 96-well plate; such results were omitted from the calculation of relative rates.
# (H+/K+)-ATPase = molecular target: T1, (H+/K+)-ATPase (Canis lupus familiaris, UniProt P50996); test: Inhibition of (H+/K+)-ATPase from canine gastric mucosa (inorganic phosphate release); format: biochemical
# T1 construct: The microsomes retained at the 15%-30% sucrose interface, after centrifugation at 250,000×g for sixty minutes, were used as the source of (H^+/K^+)-ATPase; from tissue; host or cells: gastric glandular mucosa of mongrel dogs (microsomal fraction, lyophilized)
# T1 sequence (P50996 whole entry): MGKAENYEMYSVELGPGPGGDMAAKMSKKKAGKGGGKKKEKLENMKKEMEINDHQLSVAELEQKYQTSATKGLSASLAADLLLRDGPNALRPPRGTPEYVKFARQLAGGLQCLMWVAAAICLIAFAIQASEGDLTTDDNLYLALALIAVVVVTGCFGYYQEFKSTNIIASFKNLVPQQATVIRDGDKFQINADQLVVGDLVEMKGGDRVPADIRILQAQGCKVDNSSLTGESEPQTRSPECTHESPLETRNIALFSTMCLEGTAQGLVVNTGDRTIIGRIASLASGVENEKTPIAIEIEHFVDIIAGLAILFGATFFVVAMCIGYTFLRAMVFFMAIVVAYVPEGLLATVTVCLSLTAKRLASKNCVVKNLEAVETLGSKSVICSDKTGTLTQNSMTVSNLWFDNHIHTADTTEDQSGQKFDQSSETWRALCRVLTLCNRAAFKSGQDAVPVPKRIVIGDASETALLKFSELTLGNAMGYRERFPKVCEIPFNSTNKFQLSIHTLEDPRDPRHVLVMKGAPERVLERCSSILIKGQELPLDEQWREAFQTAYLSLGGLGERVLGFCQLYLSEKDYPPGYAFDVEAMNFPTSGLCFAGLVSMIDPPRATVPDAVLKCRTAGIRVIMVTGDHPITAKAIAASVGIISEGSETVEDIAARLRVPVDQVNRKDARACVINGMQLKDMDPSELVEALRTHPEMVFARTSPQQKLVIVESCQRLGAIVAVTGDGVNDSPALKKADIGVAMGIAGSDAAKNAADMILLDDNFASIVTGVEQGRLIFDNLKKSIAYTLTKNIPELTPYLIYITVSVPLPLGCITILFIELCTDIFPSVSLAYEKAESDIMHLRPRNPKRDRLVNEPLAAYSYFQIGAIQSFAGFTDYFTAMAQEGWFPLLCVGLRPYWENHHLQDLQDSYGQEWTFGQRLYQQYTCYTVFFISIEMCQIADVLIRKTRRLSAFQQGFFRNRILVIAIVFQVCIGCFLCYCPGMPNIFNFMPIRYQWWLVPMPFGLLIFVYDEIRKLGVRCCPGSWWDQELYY
# T1 sequence (P33704 whole entry partner): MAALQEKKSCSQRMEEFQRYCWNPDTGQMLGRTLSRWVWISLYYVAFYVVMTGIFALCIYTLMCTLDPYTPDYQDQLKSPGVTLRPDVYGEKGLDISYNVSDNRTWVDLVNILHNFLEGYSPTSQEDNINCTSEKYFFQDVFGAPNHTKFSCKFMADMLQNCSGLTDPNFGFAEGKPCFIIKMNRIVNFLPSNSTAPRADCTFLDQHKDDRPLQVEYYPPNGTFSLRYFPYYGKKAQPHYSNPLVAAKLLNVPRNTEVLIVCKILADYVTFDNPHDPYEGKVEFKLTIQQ
# Method: Mongrel dogs weighing 15 to 25 kilograms were fasted for twenty-four hours, with water provided ad libitum. The animals were anesthetized with pentobarbital and the stomachs were removed. Subsequent tissue manipulations and subcellular fractionations were performed at 0° C. to 4° C. After the stomachs were cut open and rinsed with tap water, the antral and cardiac regions were removed and the remaining tissue was rinsed three times in saline. The glandular mucosa was removed mechanically, chopped finely in a medium containing 10 mM Tris hydrochloride (pH 7.4) and 250 mM sucrose, and homogenized. The homogenate was centrifuged at 20,000×g for twenty minutes and the pellet discarded. The supernatant was then centrifuged at 150,000×g for ninety minutes and the supernatant discarded. The pellet was resuspended in the Tris-HCl/sucrose medium by homogenization. Part (2 ml) of the resultant microsomal suspension was layered onto a step gradient consisting of 9 ml of 15% sucrose above 12 ml of 30% sucrose, each sucrose solution being buffered with 10 mM Tris hydrochloride (pH 7.4) containing 0.01% sodium azide. The microsomes retained at the 15%-30% sucrose interface, after centrifugation at 250,000×g for sixty minutes, were used as the source of (H^+/K^+)-ATPase. Microsomal preparations were lyophilized, a process that assured potassium ion permiability, and stored at −10° C. until used.
# (H^+/K^+)-ATPase activity for each test compound was determined, in duplicate, by measuring the release of inorganic phosphate, which was assayed according to the method of J. ChandraRajan and L. Klein, Anal. Biochem., 72 , 407 (1976). The (H^+/K^+)-ATPase assay medium consisted of 20 mm mes-Tris (pH 6.0), 5 mM magnesium chloride, 25 mM sucrose, and 4 mM Tris-ATP with or without 20 mM potassium chloride in a total volume of 2 ml. Microsomal suspensions (20 to 60 mcl, containing about 25 mcg protein) were added to the assay medium, without Tris-ATP, and then preincubated with a test compound for thirty minutes at 37° C. The assay was initiated by adding Tris-ATP and the mixture was incubated another thirty minutes at 37° C. A 200-mcl aliquot of the assay mixture was then added to 1.4 ml of a solution consisting of 0.1 M sodium acetate (pH 4.0) and 10% sodium dodecylsulfate, followed by the addition of 200 mcl each of 1% ammonium molybdate and 1% ascorbic acid. At least fifteen minutes later, the optical absorbance at 870 nm (which was proportional to inorganic phosphate concentration up to 100 nmoles per tube, as determined by a standard curve) was obtained. Enzyme activity was linear with incubation time.
# (H^+/K^+)-ATPase activity is represented by the difference between the measured activities in the presence of potassium-ion (K^+-stimulated) and in the absence of potassium ion (basal).
# [2] = iv, 3 mg/kg i.v., histamine-stimulated, four-hour period
# [3] = at 100 μm, 30 min preincubation at 22° C.
# [4] = canine gastric mucosa microsomes, pH 6.0, 30 min preincubation at 37° C., read-out: (H+/K+)-ATPase IC50
# [5] = intraduodenal, 3 mg/kg i.d., histamine-stimulated, four-hour period
Structure (SMILES),"inhibition at 100 µM [1, 3] [%]",pIC50 ((H+/K+)-ATPase; [4]),melting point [°C],other results
"Cc1cc2nc([S+]([O-])Cc3ccccc3N)[nH]c2cc1C (stereo not shown) [Example 10, 2-[[(5,6-Dimethyl-1H-benzimidazol-2-yl)sulfinyl]methyl]benzenamine ¼ hydrate]",43,4.87,–,inhibition in vivo at 3 mg/kg (gastric acid secretion; [2]): 44%
"COc1ccc2[nH]c([S+]([O-])Cc3ccccc3N)nc2c1 (stereo not shown) [Example 12, 2-[[(5-Methoxy-1H-benzimidazol-2-yl)sulfinyl]methyl]benzenamine]",26,4.96,147 to 148,inhibition in vivo at 3 mg/kg (gastric acid secretion; [5]): 90%
"CNc1ccccc1C[S+]([O-])c1nc2ccccc2[nH]1 (stereo not shown) [Example 32, 2-[(1H-Benzimidazol-2-ylsulfinyl)methyl]-N-methylbenzenamine monohydrate]",–,6.19,–,inhibition in vivo at 3 mg/kg (gastric acid secretion; intraduodenal): 21%; inhibition at 100 µM [1]: 52%
"CCOc1ccc2[nH]c([S+]([O-])Cc3ccccc3N)nc2c1 (stereo not shown) [Example 45, 2-[[(5-Ethoxy-1H-benzimidazol-2-yl)sulfinyl]-methyl]benzenamine]",51,4.62,154 to 155,–
"Cc1cc(Cl)cc(C[S+]([O-])c2nc3ccccc3[nH]2)c1N.Cc1cc(Cl)cc(C[S+]([O-])c2nc3ccccc3[nH]2)c1N.O (stereo not shown) [Example 57, 2-[(1H-Benzimidazol-2-ylsulfinyl)methyl]-4-chloro-6-methylbenzenamine hemihydrate]",–,4.22,–,"Assemblin Inhibition % Inhibition at 100 μm [1, 3]: 66%"
"CCOC(=O)c1ccc(N)c(C[S+]([O-])c2nc3ccccc3[nH]2)c1.CCOC(=O)c1ccc(N)c(C[S+]([O-])c2nc3ccccc3[nH]2)c1.O (stereo not shown) [Example 71, Ethyl 4-amino-3-[(1H-benzimidazol-2-ylsulfinyl)methyl]benzoate hemihydrate]",–,< 4.00,–,"Gastric-Fistula Beagle % Inhibition (3 mg/kg dose) (gastric acid secretion; 3 mg/kg i.d., histamine-stimulated, four-hour period): 7 i.d. %; Assemblin Inhibition % Inhibition at 100 μm [1, 3]: 44%"
"CCOC(=O)c1ccc(N)c(C[S+]([O-])c2nc3ccc(OC)cc3[nH]2)c1 (stereo not shown) [Example 73, Ethyl 4-amino-3-[[(S-methoxy-1H-benzimidazol-2-yl)sulfinyl]methyl]benzoate]",50,< 4.00,–,–
"CN(C)c1ncccc1C[S+]([O-])c1nc2ccccc2[nH]1 (stereo not shown) [Example 83, 3-[(1H-Benzimidazol-2-ylsulfinyl)methyl]-N,N-dimethyl-2-pyridinamine ⅓ hydrate]",83,–,–,inhibition in vivo at 3 mg/kg (gastric acid secretion; [2]): 15%; pIC50 ((H+/K+)-ATPase): 5.07

# More lines, main results first:
"inhibition at 100 µM [1, 3] [%]",pIC50 ((H+/K+)-ATPase; [4]),melting point [°C],Structure (SMILES),other results
–,5.03,–,"COc1cccc(C[S+]([O-])c2nc3ccccc3[nH]2)c1N.COc1cccc(C[S+]([O-])c2nc3ccccc3[nH]2)c1N.O (stereo not shown) [Example 22, 2-((1H-Benzimidazol-2-ylsulfinyl)methyl]-6-methoxybenzenamine hemihydrate]","Gastric-Fistula Beagle % Inhibition (3 mg/kg dose) (gastric acid secretion; 3 mg/kg i.v., histamine-stimulated, four-hour period): 70 i.v. %; Assemblin Inhibition % Inhibition at 100 μm [1, 3]: 35%"
46,6.70,150 to 155,"COc1c(C)cc(N)c(C[S+]([O-])c2nc3ccccc3[nH]2)c1C (stereo not shown) [Example 39, 2-[(1H-Benzimidazol-2-ylsulfinyl)methyl]-4-methoxy-3,5-dimethylbenzenamine]",inhibition in vivo at 3 mg/kg (gastric acid secretion; [5]): 53%
40,5.36,152 to 152.5,Nc1ccccc1C[S+]([O-])c1nc2cc(C(F)(F)F)ccc2[nH]1 (stereo not shown) [Example 47],inhibition in vivo at 3 mg/kg (gastric acid secretion; [5]): 37%
71,5.57,163 to 164,"COc1cc(Cl)c(C)c(C[S+]([O-])c2nc3ccccc3[nH]2)c1N (stereo not shown) [Example 59, 2-[(1H-Benzimidazol-2-ylsulfinyl)methyl]-4-chloro-6-methoxy-3-methylbenzenamine]",–

# Source: patent US6906078B2, “Method of using (H+/K+) ATPase inhibitors as antiviral agents” (Pharmacia Corporation, priority 1994, dated 2005)
